Assay results: ChEMBL document CHEMBL1144681, “Fluorination of triptolide and its analogues and their cytotoxicity” (Bioorg Med Chem Lett, 2008)
≈ marks a conversion by molar mass, not a printed value.

Key:
A549 = assay: Cytotoxicity against human A549 cells; assay type: functional, cell-based
HT-29 = assay: Cytotoxicity against human HT29 cells; assay type: functional, cell-based

Structure (SMILES)	IC50 (A549) [ng/mL]	IC50 (HT-29) [ng/mL]
CC(C)C1=C[C@]23O[C@H]2C[C@H]2C4=C(CC[C@]2(C)[C@@]32O[C@H]2[C@H]1F)C(=O)OC4	2200 (≈ 6.35 µM)	210 (≈ 0.606 µM)
CC(C)[C@]1(F)O[C@H]2[C@@H]3O[C@]34[C@]3(O[C@H]3C[C@H]3C5=C(CC[C@@]34C)C(=O)OC5)[C@H]21	997 (≈ 2.75 µM)	72 (≈ 0.199 µM)
CC(C)[C@]12O[C@@H]1[C@@H]1O[C@]13[C@]1(O[C@H]1C[C@H]1C4=C(CC[C@@]13C)C(=O)OC4)[C@@H]2F	0.42 (≈ 0.00116 µM)	0.06 (≈ 0.000166 µM)
CC(C)C1=C[C@]23O[C@H]2C[C@H]2C4=C(CC[C@]2(C)[C@@]32O[C@H]2[C@@H]1F)C(=O)OC4	1500 (≈ 4.33 µM)	150 (≈ 0.433 µM)
CC(C)C1=C[C@]23O[C@H]2C[C@H]2C4=C(CC[C@]2(C)[C@@]32O[C@H]2[C@@H]1O)C(=O)OC4	81 (≈ 0.235 µM)	17 (≈ 0.0494 µM)
CC(C)[C@]12O[C@@H]1[C@@H]1O[C@]13[C@]1(O[C@H]1C[C@H]1C4=C(CC[C@@]13C)C(=O)OC4)[C@H]2F	3 (≈ 0.00828 µM)	0.24 (≈ 0.000662 µM)
CC(C)C(=O)[C@H]1[C@@H](O)[C@@H]2O[C@]23[C@]12O[C@H]2C[C@H]1C2=C(CC[C@@]13C)C(=O)OC2	> 1	86 (≈ 0.239 µM)
CC(C)[C@]12O[C@H]1[C@@H]1O[C@]13[C@]1(O[C@H]1C[C@H]1C4=C(CC[C@@]13C)C(=O)OC4)[C@H]2O [EPITRIPTOIIDE]	59 (≈ 0.164 µM)	9.1 (≈ 0.0252 µM)
CC(C)[C@]12O[C@H]1[C@@H]1O[C@]13[C@]1(O[C@H]1C[C@H]1C4=C(CC[C@@]13C)C(=O)OC4)[C@@H]2O [TRIPTOLIDE]	1.3 (≈ 0.00361 µM)	0.1 (≈ 0.000277 µM)
CC(C)[C@]12O[C@H]1[C@@H]1O[C@@]13[C@@]1(C)CCC4=C(COC4=O)[C@@H]1C[C@@H]1O[C@@]13C2=O [TRIPTONIDE]	3.5 (≈ 0.00977 µM)	< 0.46
